The values below are quoted from earlier work in patent US4380638A, “Chemical compounds” (Bristol-Myers Company, priority 1981, dated 1983).

Data set [1] deals with H2 -receptor.
For data set [2] the following is noted: agranulocytosis.
Another data set relates to peptic ulcer disease. The settings on record: Gray et al., Lancet, 1, 8001 (1977).
Data set [3] concerns H2 -receptor. The settings on record: man.

`CNC(=NC#N)NCCSCc1[nH]cnc1C` [Cimetidine]: in the data set with H2 -receptor [1], the “H2-antagonist potency/effectiveness relative to another drug” value is listed as “as effective an H2 -antagonist as metiamide”. The toxicity entry in data set [2] is “without producing agranulocytosis”. For the same compound, the “clinical effectiveness in peptic ulcer disease” value in the data set with peptic ulcer disease is recorded as “effective therapeutic agent in the treatment of peptic ulcer disease”.

For the compound `CNC(=S)NCCCCc1cnc[nH]1` [Burimamide], the oral absorption result is “poor”.

Take `CNC(=S)NCCSCc1[nH]cnc1C` [Metiamide]: in the data set with H2 -receptor [1], the “H2-antagonist potency/effectiveness relative to another drug” value was “more potent than burimamide”. Also, the oral activity result in the data set on H2 -receptor [3] is given as “orally active in man”. For the same compound, the toxicity result in data set [2] is listed as “agranulocytosis”.
